Patent US20230026696A1, “TRPV4 RECEPTOR LIGANDS” (UNIVERSITY OF UTAH RESEARCH FOUNDATION, priority 2019, published 2023)
Structures can show the parent of a compound that is named as a salt. Each block holds one compound with its values, some of them ahead of it.

What was measured:
[1] = target: T1, TRPV1 (Homo sapiens, UniProt Q8NER1); experiment: Selectivity Ca2+ flux assay, TRPV1 stably overexpressed in human lung epithelial (BEAS-2B) cells; assay type: cell-based; conditions: agonist nonivamide (5 μM)
T1 construct: expressed in transfected cells
Procedure: (§1) To determine selectivity of the various test compounds for TRPV4, select compounds with activity in the TRPV4 fluorometric cell-based Ca^2+ flux assays were also tested for inhibition of human TRPA1 stably over-expressed in HEK-293 cells, TRPM8 stably over-expressed in HEK-293 cells, TRPV3 stably over-expressed in HEK-293 cells, and TRPV1 stably overexpressed in human lung epithelial (BEAS-2B) cells. The assays were conducted substantially as described above for HEK-293 cells that stably overexpress TRPV4, although for TRPV1, the BEAS-2B cells were maintained in LHC-9 media containing Geneticin (300 μg/mL) and were loaded with Fluo-4AM at room temperature. The agonist for TRPA1 was 2,4-ditert butylphenol (50 μM), for TRPM8 was icilin (50 μM), for TRPV3 was carvacrol (300 μM), and for TRPV1 was nonivamide (5 μM). All other aspects of the assay described above were the same.

[2] = target: T2, human TRPA1 (Homo sapiens, UniProt O75762); experiment: Selectivity Ca2+ flux assay, TRPA1 stably over-expressed in HEK-293 cells; assay type: cell-based; conditions: agonist 2,4-ditert butylphenol (50 μM)
T2 construct: expressed in transfected cells
Procedure: as §1

[3] = target: T3, TRPM8 (Homo sapiens, UniProt Q7Z2W7); experiment: Selectivity Ca2+ flux assay, TRPM8 stably over-expressed in HEK-293 cells; assay type: cell-based; conditions: agonist icilin (50 μM)
T3 construct: expressed in transfected cells
Procedure: as §1

[4] = target: T4, human TRPV4 (Homo sapiens, UniProt Q9HBA0); experiment: Fluorometric cell-based Ca2+ flux assay, HEK-293 cells stably overexpressing human TRPV4; conditions: for IC50: HEK-293 stably overexpressing human TRPV4, agonist GSK1016790A 30 nM
T4 construct: expressed in transfected cells
Procedure, shortened: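 HEK-293 cells stably overexpressing human TRPV4, Fluo 4-loaded, pre-incubated 30 min at 37° C with compound, then stimulated with 30 nM GSK1016790A (final). Max ΔF/s over 1 min, media-corrected, expressed relative to no-antagonist control; IC50 from ≥8 concentrations, ≥3 replicates.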

[5] = target: T5, TRPV3 (Homo sapiens, UniProt Q8NET8); experiment: Selectivity Ca2+ flux assay, TRPV3 stably over-expressed in HEK-293 cells; assay type: cell-based; conditions: agonist carvacrol (300 μM)
T5 construct: expressed in transfected cells
T5 sequence (Q8NET8 1-790): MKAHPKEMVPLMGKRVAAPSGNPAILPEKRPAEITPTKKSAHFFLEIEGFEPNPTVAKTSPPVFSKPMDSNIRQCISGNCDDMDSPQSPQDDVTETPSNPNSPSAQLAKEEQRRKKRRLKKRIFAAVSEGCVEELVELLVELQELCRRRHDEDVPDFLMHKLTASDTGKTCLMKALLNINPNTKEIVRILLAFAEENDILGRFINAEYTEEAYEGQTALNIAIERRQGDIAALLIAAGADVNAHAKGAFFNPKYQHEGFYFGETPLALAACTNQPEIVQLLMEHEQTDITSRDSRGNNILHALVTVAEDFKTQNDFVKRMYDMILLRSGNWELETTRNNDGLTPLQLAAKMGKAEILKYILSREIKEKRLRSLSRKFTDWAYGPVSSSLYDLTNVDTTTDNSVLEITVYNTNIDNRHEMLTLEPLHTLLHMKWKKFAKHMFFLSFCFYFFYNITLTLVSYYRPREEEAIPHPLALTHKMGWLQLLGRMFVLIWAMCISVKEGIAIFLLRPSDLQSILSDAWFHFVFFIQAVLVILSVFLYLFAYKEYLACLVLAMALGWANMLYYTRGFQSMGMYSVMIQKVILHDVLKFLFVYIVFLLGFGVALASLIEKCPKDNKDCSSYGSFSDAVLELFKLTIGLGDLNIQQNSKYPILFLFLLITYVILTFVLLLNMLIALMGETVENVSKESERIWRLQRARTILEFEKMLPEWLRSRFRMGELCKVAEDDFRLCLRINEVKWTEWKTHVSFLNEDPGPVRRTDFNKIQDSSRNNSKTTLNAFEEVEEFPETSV
Procedure: as §1

[6] = test system: intraocular pressure (IOP); experiment: In vivo tonometric IOP assay in microbead mouse model of ocular hypertension
[7] = test system: intraocular pressure (IOP); conditions: applied at 0.3-1.0 mM; Ryskamp et al., Sci Rep 2016; cited from earlier work
[8] = test system: intraocular pressure (IOP); conditions: OAG-affected dogs; literature; cited from earlier work
[9] = test system: intraocular pressure (IOP); experiment: In vivo tonometric IOP assay in microbead mouse model of ocular hypertension; conditions: FIG. 2 right panel; P<0.01 / P<0.001, two-way ANOVA
Procedure: FIG. 1 is a graph showing the effect that two concentrations of topical compound 11 (0.01% and 0.1%), 0.5% timolol, and control PBS had on IOP in the microbead (MB) mouse model of ocular hypertension (N=3 separate experiments, with 7-10 mice per experimental cohort). Error bars=±S.E.M. Ocular hypertension in the mouse model of primary open angle glaucoma (POAG) was induced with intracameral injection of polystyrene microbeads. Antagonist stock solutions (10 mM) were prepared in DMSO, the final concentrations were made in PBS diluted to <0.0001% DMSO.
FIG. 2 is a bar chart showing the cumulative data for pre-IOP elevation cohorts of mouse eyes (N≥3 separate experiments, with 7-10 mice per experimental cohort). Left panel: the IOP data are plotted as % of the control value of the timolol-treated eye cohort. Middle panel: MB injection elevated IOP in all experimental cohorts.
A tonometric assay was used to measured IOP changes in mice models of ocular hypertension over a period of weeks following topical application of the compounds.
To prepare the mice models of ocular hypertension, mice were anesthetized with an intraperitoneal (IP) injection of ketamine/xylazine (90 mg/10 mg/kg of body weight). Eye drops of 0.5% proparacaine hydrochloride with 1% tropicamide ophthalmic solution (Bausch & Lomb) were applied to numb and dilate the eyes of the mice. IOP was elevated in the ipsilateral eye by injecting 2 μl of polystyrene microbeads (7.8 μm FluoSpheres; Bangs Laboratories) with a Hamilton syringe into the anterior chamber over 60 seconds. The contralateral eye was injected with phosphate buffered saline (PBS).
A rebound tonometer was used to measure IOP at 1, 2, 6 and 10 hours post-injection after topical administration of Compounds 11 and 52 and timolol, a known medication for treatment of IOP associated with ocular hypertension and glaucoma. The IOP was determined from the means of 10 to 20 readings, following the protocol described in Ryskamp et al., Sci Rep 6:30583, 2016. […]

T4 sequence (Q9HBA0 whole entry): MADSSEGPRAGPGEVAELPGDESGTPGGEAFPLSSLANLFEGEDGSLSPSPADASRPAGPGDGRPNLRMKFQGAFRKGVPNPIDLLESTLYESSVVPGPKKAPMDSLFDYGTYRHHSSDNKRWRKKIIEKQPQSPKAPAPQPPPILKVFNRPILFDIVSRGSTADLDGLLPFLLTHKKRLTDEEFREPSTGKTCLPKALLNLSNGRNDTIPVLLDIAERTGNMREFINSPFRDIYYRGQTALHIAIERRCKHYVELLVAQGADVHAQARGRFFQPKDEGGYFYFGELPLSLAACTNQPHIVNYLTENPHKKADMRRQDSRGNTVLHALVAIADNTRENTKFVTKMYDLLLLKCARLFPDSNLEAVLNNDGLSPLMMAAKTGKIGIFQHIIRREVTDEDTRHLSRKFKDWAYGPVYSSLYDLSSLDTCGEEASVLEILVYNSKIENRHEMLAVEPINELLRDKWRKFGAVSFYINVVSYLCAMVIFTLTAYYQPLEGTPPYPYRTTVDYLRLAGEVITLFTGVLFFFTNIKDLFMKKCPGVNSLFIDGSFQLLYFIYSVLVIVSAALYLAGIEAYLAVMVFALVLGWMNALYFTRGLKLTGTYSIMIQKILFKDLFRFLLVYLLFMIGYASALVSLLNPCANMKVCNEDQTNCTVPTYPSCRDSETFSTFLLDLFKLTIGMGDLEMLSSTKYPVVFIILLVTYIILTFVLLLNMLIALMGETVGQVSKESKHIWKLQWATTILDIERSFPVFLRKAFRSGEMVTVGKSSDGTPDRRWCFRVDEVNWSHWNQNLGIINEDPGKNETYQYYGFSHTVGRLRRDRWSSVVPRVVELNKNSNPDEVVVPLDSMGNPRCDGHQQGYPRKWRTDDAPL
T2 sequence (O75762 whole entry): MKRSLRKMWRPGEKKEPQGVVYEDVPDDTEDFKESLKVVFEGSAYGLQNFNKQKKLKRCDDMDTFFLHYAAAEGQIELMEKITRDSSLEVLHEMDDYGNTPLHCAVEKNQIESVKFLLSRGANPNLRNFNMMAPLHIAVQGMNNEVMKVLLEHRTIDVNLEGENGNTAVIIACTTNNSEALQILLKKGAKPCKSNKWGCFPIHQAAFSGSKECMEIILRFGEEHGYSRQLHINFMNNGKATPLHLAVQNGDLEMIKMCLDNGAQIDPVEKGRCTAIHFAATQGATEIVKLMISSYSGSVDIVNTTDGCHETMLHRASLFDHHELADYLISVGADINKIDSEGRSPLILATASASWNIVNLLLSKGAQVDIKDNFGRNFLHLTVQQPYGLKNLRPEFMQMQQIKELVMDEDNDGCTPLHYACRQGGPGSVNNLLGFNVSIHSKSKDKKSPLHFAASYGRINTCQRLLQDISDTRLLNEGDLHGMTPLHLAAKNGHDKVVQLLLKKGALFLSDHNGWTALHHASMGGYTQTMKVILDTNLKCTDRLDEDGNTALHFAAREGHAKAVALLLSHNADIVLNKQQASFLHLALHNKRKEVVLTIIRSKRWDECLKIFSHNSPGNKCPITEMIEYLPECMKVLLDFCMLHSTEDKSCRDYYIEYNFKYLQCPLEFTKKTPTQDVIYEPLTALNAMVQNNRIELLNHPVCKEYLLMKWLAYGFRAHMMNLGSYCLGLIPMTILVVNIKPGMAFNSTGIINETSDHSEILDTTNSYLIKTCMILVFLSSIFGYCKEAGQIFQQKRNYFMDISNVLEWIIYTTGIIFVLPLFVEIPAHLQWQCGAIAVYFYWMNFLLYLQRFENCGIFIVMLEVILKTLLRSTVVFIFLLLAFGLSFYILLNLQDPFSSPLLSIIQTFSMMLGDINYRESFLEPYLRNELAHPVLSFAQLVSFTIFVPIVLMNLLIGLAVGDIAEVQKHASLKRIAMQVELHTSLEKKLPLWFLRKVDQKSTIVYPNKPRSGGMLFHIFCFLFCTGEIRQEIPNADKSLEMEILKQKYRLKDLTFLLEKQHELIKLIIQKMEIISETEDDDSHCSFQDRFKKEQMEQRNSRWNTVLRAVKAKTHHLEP
T3 sequence (Q7Z2W7 whole entry): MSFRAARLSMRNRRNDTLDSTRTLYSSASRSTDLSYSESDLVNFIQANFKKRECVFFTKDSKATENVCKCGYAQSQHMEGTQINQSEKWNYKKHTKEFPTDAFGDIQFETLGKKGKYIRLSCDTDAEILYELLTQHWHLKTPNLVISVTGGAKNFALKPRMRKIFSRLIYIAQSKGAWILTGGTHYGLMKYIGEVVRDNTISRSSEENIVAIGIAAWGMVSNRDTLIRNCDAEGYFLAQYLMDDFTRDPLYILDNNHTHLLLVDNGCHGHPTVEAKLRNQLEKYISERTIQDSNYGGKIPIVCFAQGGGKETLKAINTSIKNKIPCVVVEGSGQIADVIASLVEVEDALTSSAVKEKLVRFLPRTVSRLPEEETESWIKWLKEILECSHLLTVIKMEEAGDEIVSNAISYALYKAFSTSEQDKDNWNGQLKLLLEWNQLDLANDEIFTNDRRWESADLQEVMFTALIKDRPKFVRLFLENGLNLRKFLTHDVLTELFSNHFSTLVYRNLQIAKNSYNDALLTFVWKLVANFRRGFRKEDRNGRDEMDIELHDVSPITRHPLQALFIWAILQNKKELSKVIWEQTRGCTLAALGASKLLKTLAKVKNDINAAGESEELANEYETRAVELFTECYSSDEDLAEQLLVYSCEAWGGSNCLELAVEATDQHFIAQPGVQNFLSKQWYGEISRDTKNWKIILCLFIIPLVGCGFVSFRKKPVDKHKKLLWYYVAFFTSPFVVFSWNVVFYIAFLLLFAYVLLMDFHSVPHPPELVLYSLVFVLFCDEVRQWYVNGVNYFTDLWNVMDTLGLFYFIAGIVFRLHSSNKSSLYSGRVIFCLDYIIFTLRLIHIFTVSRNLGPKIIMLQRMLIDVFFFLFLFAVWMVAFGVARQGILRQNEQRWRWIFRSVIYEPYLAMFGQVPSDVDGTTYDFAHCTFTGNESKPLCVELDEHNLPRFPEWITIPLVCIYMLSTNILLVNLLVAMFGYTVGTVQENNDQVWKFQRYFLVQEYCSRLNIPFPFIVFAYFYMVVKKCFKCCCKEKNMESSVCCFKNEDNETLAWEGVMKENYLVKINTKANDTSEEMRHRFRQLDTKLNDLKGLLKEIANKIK
T1 sequence (Q8NER1 whole entry): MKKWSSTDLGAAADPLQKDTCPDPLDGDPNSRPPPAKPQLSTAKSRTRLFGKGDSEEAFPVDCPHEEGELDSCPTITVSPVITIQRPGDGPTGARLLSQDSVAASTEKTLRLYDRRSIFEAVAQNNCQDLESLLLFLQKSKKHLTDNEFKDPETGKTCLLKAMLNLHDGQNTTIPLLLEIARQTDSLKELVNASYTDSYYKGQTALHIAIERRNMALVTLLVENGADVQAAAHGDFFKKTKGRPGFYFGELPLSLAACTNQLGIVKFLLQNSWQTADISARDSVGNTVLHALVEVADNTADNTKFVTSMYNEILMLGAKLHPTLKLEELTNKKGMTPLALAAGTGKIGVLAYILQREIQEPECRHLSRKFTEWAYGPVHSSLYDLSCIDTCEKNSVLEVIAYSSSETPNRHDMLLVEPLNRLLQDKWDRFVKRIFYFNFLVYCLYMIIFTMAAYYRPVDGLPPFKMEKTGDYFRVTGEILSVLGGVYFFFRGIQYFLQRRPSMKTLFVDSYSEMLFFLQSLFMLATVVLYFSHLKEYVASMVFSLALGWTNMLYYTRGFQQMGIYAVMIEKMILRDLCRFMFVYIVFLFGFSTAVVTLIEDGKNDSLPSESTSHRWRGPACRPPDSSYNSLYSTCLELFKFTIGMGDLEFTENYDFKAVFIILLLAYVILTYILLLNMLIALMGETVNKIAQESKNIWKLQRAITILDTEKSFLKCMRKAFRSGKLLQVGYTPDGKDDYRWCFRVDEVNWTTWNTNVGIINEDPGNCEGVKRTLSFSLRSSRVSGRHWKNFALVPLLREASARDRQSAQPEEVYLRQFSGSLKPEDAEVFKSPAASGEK

- IC50 [1]: 6000 nM
- IC50 [2]: 20700 nM
- IC50 [3]: 17800 nM
- IC50 [4]: 0.6 nM
- selectivity for TRPV4 versus TRPA1, TRPM8, TRPV3 and TRPV1 ([4]; comparison of IC50 values): substantially more selective for TRPV4
- IC50 [5]: > 100000 nM
SMILES: CNCC1(COc2ccc(C#N)c(F)c2)CN(S(=O)(=O)c2ccc(Cl)cc2Cl)C1 [Compound 16, 4-((1-((2,4-Dichlorophenyl)sulfonyl)-3-((methylamino)methyl)azetidin-3-yl)methoxy)-2-fluorobenzonitrile hydrochloride]

- IC50 [1]: 5300 nM
- IC50 [2]: > 35500 nM
- IC50 [3]: 25400 nM
- IC50 [4]: 0.2 to 0.6 nM
- IC50 [5]: > 50000 nM
SMILES: N#Cc1ccc(OCC2(CNCCO)CN(S(=O)(=O)c3ccc(Cl)cc3Cl)C2)cc1F [Compound 17, 4-((1-((2,4-Dichlorophenyl)sulfonyl)-3-(((2-hydroxyethyl)amino)methyl)azetidin-3-yl)methoxy)-2-fluorobenzonitrile]

- IC50 [4]: 1.6 nM
SMILES: C[C@H](O)CNCC1(COc2ccc(C#N)c(F)c2)CN(S(=O)(=O)c2ccccc2C#N)C1 [Compound 117, (S)-4-((1-((2-Cyanophenyl)sulfonyl)-3-(((2-hydroxypropyl)amino)methyl)azetidin-3-yl)methoxy)-2-fluorobenzonitrile]

Continued, compound first:

SMILES: N#Cc1ccc(OCC2(CN[C@H]3C[C@H](O)C3)CN(S(=O)(=O)c3ccccc3C#N)C2)cc1F [Compound 113, 4-((1-((2-Cyanophenyl)sulfonyl)-3-(((trans-3-hydroxycyclobutyl)amino)methyl)azetidin-3-yl)methoxy)-2-fluorobenzonitrile]
- IC50 [4]: 0.79 nM

SMILES: CCOC(=O)CCNCC1(COc2ccc(C#N)c(F)c2)CN(S(=O)(=O)c2ccccc2C#N)C1 [Compound 114, Ethyl 3-(((3-((4-cyano-3-fluorophenoxy)methyl)-1-((2-cyanophenyl)sulfonyl)azetidin-3-yl)methyl)amino)propanoate]
- IC50 [4]: 6.45 nM

SMILES: N#Cc1ccc(OCC2(CNCC(O)CO)CN(S(=O)(=O)c3ccccc3C#N)C2)cc1F (stereo not shown) [Compound 115, 4-((1-((2-Cyanophenyl)sulfonyl)-3-(((2,3-dihydroxypropyl)amino)methyl)azetidin-3-yl)methoxy)-2-fluorobenzonitrile]
- IC50 [4]: 1.98 nM

SMILES: N#Cc1ccc(OCC2(CNC3CCOCC3)CN(S(=O)(=O)c3ccccc3C#N)C2)cc1F [Compound 116, 4-((1-((2-Cyanophenyl)sulfonyl)-3-(((tetrahydro-2H-pyran-4-yl)amino)methyl)azetidin-3-yl)methoxy)-2-fluorobenzonitrile]
- IC50 [4]: 0.41 nM

SMILES: Cc1c(C(=O)Nc2cccc(C(F)(F)F)c2)cc(-c2ccccc2)n1CCCN1CCOCC1 [HC067047, reference compound]
- IOP levels in MB-treated eyes, intraperitoneal injection ([6]; FIG. 2 right panel, intraperitoneal): significantly lowered IOP levels
- IOP in hypertensive mouse eyes [7]: lowered IOP

SMILES: CCN[C@H]1C[C@H](C)S(=O)(=O)c2sc(S(N)(=O)=O)cc21 [dorzolamide HCl]
- IOP lowering [8]: 3.8-5.0 mm Hg

SMILES: CC(C)(C)NC[C@H](O)COc1nsnc1N1CCOCC1 [timolol, reference compound]
- IOP after topical administration ([6]; mouse model of ocular hypertension, compounds 1 μM and 10 μM, timolol 0.5%, FIG. 1): lowered the IOP
- protection of RGCs ([6]; mouse model of ocular hypertension, topical, compounds 1 μM and 10 μM, timolol 0.5%): protected RGCs
- IOP levels in MB-treated eyes, topical application [9]: significantly lowered IOP levels
